Test results reported in ChEMBL document CHEMBL1155523, “Synthesis and biological activity of alpha-L-fucosyl ceramides, analogues of the potent agonist, alpha-D-galactosyl ceramide KRN7000” (2010).

These compounds were tested on iNKT (assay: Effect on immune response in human iNKT cells stimulated by antigen-presenting CD1d assessed as cellular expansion at 250 nM after 8 days by FACSCalibur flow cytometry relative to control).
Format: functional

Compound	Activity [%]
CCCCCCCCCCCCCCCCCCCCCCCCCC(=O)N[C@@H](CO[C@@H]1O[C@@H](C)[C@@H](O)[C@H](O)[C@@H]1O)[C@H](O)[C@H](O)CCCCCCCCCCCCCC	12
CCCCC/C=C\C/C=C\CCCCCCCCCC(=O)N[C@@H](CO[C@@H]1O[C@@H](C)[C@@H](O)[C@H](O)[C@@H]1O)[C@H](O)[C@H](O)CCCCCCCCCCCCCC	0.56
CCCCCCCCCCCCCCCCC(O)C(=O)N[C@@H](CO[C@@H]1O[C@@H](C)[C@@H](O)[C@H](O)[C@@H]1O)[C@H](O)[C@H](O)CCCCCCCCCCCCCC (stereo not given in full)	2.9
CCCCCCCCCCCCCCCCCCCCCCCC(=O)N[C@@H](CO[C@@H]1O[C@@H](C)[C@@H](O)[C@H](O)[C@@H]1O)[C@H](O)[C@H](O)CCCCCCCCCCCCCC	1.1
CCCCCCCCCCCCCCCCCCCCCCCCCC(=O)N[C@@H](CO[C@H]1O[C@H](CO)[C@H](O)[C@H](O)[C@H]1O)[C@H](O)[C@H](O)CCCCCCCCCCCCCC [RGI-7000]	26
